{"source": "patent US11149046B2", "about": "“Antibacterial sideromycins” (Hsiri Therapeutics, Inc., priority 2014, dated 2021)", "key": {"P. aeruginosa KW799/wt": {"tested_on": "P. aeruginosa KW799/wt", "experiment": "MIC determination", "type": "cell-based, Pseudomonas aeruginosa", "conditions": "Pseudomonas aeruginosa, KW799/WT", "excerpt": "(§1) Table 3 that was included in the first Example 4 section provides antibacterial data for the first synthetic sideromycins we prepared and studied. The second Example 4 section elaborated and expanded on that data with inclusion of representative antibacterial data in the text and associated pictures of Petri dish assays. MIC (minimum inhibition concentration) is given in μM and AD (agar diffusion zones of inhibition are given in mm from Kirby-Bauer Petri dish growth inhibition studies)."}, "Pa4": {"tested_on": "Pa4", "experiment": "MIC determination", "type": "cell-based, Pseudomonas aeruginosa", "conditions": "Pseudomonas aeruginosa; Table 5", "excerpt": "as §1"}, "[1]": {"tested_on": "P. aeruginosa KW799/61 (permeability mutant)", "experiment": "microbe, parasite or virus in culture", "type": "cell-based, Pseudomonas aeruginosa", "conditions": "Pseudomonas aeruginosa", "excerpt": "(§2) MIC (minimum inhibition concentration) is given in μM and AD (agar diffusion zones of inhibition are given in mm from Kirby-Bauer Petri dish growth inhibition studies)."}, "Pa6": {"tested_on": "Pa6", "experiment": "MIC determination", "type": "cell-based, Pseudomonas aeruginosa", "conditions": "Pseudomonas aeruginosa", "excerpt": "as §2"}, "[2]": {"tested_on": "Pa-Da-1304 CF patient isolate", "experiment": "MIC determination", "type": "cell-based, Pseudomonas aeruginosa", "conditions": "for MIC: Pseudomonas aeruginosa; for susceptibility of the clinical isolate (in words): preliminary tests", "excerpt": "as §2\nWe obtained a clinical isolate of Pseudomonas from a cystic fibrosis patient."}, "A. baumannii ATCC 17961": {"tested_on": "A. baumannii ATCC 17961", "experiment": "MIC determination", "type": "cell-based, Acinetobacter baumannii", "conditions": "Acinetobacter baumannii", "excerpt": "as §1"}, "E. coli DC0": {"tested_on": "E. coli DC0", "experiment": "MIC determination", "type": "cell-based", "conditions": "Escherichia coli, DC0; Table 5; read-out: MIC", "excerpt": "as §1"}, "[3]": {"tested_on": "E. coli DC2 (permeability mutant)", "experiment": "MIC determination", "type": "cell-based", "conditions": "Escherichia coli", "excerpt": "as §1"}, "[4]": {"tested_on": "Pseudomonas aeruginosa 01 (Pa01)", "experiment": "MIC determination", "type": "cell-based", "conditions": "Pseudomonas aeruginosa, read-out: MIC", "excerpt": "as §1"}, "[5]": {"tested_on": "strains of Pseudomonas and Acinetobacter", "experiment": "Antibacterial activity, general statements", "type": "cell-based", "conditions": "general statements of the text", "method": "Antibiotic activity was determined using agar diffusion assays against representative Gram-negative bacteria, including Pseudomonas aeruginosa (Pa6), and several multidrug resistant forms of Acinetobacter baumannii. Representative results are shown in Table 1 and a corresponding picture of an actual petri dish showing the agar diffusion results (FIG. 4). […]."}, "[6]": {"tested_on": "Acinetobacter baumannii ATCC 17961", "experiment": "Agar diffusion (Kirby-Bauer) assay, with and without hydrogel", "type": "cell-based", "excerpt": "as §1\nWe investigated whether the sideromycin absorbed in the gel be able to diffuse out of the gel and into the agar to effect antibacterial growth. As a control, the sideromycin alone, without gel, was added in a separate 9 mm well, as usual.\nThe second question was whether the sideromycin continue to be released and be able to effect bacterial growth inhibition over extended periods. Thus, additional identical agar plates were prepared and stored at 4° C. for 24, 48 and 72 hours to allow diffusion of the sideromycin (control and gel forms) into the agar before allowing the bacteria to grow in an incubator. Then after each time period, the Petri dishes were incubated at 37° C. for 20 hours to promote bacteria growth in the agar. […] The study has been extended to as long as 168 hours (one week) with retention of antibiotic effectiveness."}, "[7]": {"tested_on": "Pseudomonas aeruginosa KW799/wt", "experiment": "Agar diffusion (Kirby-Bauer) assay", "type": "cell-based", "conditions": "wild type Pseudomonas; FIG. 8, 9, 12", "excerpt": "as §1"}, "Acinetobacter": {"tested_on": "Acinetobacter", "experiment": "Murine Survival Experiment with Acinetobacter", "type": "in vivo", "conditions": "50 mg/kg IV at +30 min and +4 hr", "method": "In vivo data for murine survival with Acinetobacter is shown in Table 9 below and graphically in FIG. 14. In the experiments, 10^8 Acinetobacter was administered IP at time 0 on Day 1, and antibiotic was administered twice IV at +30 min and +4 hr"}, "[8]": {"experiment": "Animal tolerability study (NOAEL) in healthy mice", "type": "in vivo", "conditions": "24 hour study", "method": "With the easily formulated sideromycin in hand, we profiled sideromycin safety in healthy mice. Thus, sideromycin YML-I-115 was tested in healthy mice to determine its No-observed-adverse-effect level (NOAEL). We dosed the mice with YML-I-115 (the sodium salt) at 1 mg/kg, 20 mg/kg, 50 mg/kg, and 100 mg/kg through IV injection of the compound. […] Higher dosage animal experiments have been scheduled to determine the upper limit of the NOAEL value."}, "[9]": {"conditions": "ATCC17961, Table 5, head prints A. baumannii only, read-out: MIC"}, "[10]": {"conditions": "ATCC17961, Table 7, read-out: MIC"}}, "note": "Like-named read-outs stand apart in the source and are kept apart here.", "data": [{"smiles": "CC(=O)Oc1cccc(C(=O)N(CCCCNC(=O)c2cccc(OC(C)=O)c2OC(C)=O)CC(=O)N[C@H](C(=O)N[C@@H]2C(=O)N3C(C(=O)O)=C(Cl)CC[C@H]23)c2ccccc2)c1O", "note": "[YML-I-57]", "values": [{"measurement": "MIC", "setting": "P. aeruginosa KW799/wt; Table 5, read-out: MIC", "value": 0.025, "unit": "µM"}, {"measurement": "MIC", "setting": "Pa4", "value": 12, "unit": "µM"}, {"measurement": "MIC", "setting": "[1]", "value": 0.125, "unit": "µM"}, {"measurement": "MIC", "setting": "Pa6; Table 5, read-out: MIC", "value": 1.56, "unit": "µM"}, {"measurement": "MIC", "setting": "[2]; Table 5", "value": "> 100", "unit": "µM"}, {"measurement": "MIC", "setting": "A. baumannii ATCC 17961; [9]", "value": "0.02 to 0.0625", "unit": "µM"}, {"measurement": "MIC", "setting": "E. coli DC0", "value": 0.006, "unit": "µM"}, {"measurement": "MIC", "setting": "[3]", "value": 0.006, "unit": "µM"}, {"measurement": "MIC", "setting": "[4]; Table 5", "value": 0.78, "unit": "µM"}, {"measurement": "antibacterial activity (in words)", "setting": "[5]", "value": "comparable to the fully acetylated version, YML-1-45"}]}, {"smiles": "O=C(CN(CCCCNC(=O)c1cccc(O)c1O)C(=O)c1cccc(O)c1O)N[C@H](C(=O)N[C@@H]1C(=O)N2C(C(=O)O)=C(Cl)CC[C@H]12)c1ccccc1", "note": "[YML-I-60]", "values": [{"measurement": "MIC", "setting": "P. aeruginosa KW799/wt; Table 5, read-out: MIC", "value": 0.025, "unit": "µM"}, {"measurement": "MIC", "setting": "Pa4", "value": 12, "unit": "µM"}, {"measurement": "MIC", "setting": "Pa6; Table 5, read-out: MIC", "value": 6, "unit": "µM"}, {"measurement": "MIC", "setting": "[2]; Table 5", "value": "> 100", "unit": "µM"}, {"measurement": "MIC", "setting": "A. baumannii ATCC 17961; [9]", "value": "0.03 to 0.06", "unit": "µM"}, {"measurement": "MIC", "setting": "A. baumannii ATCC 17961; [10]", "value": 0.1, "unit": "µM"}, {"measurement": "MIC", "setting": "[4]; Table 5", "value": 1.5, "unit": "µM"}, {"measurement": "growth inhibition with hydrogel / multi-day diffusion (in words)", "setting": "[6]; plates stored at 4° C. for 24, 48 and 72 hours, then 37° C., or gel streaked on inoculated dish", "value": "zones of inhibition increased dramatically after each day"}]}, {"smiles": "CC(=O)Oc1cccc(C(=O)NCCCCN(CC(=O)N[C@@H](C(=O)N[C@@H]2C(=O)N3C2SC(C)(C)[C@@H]3C(=O)O)c2ccccc2)C(=O)c2cccc(O)c2O)c1OC(C)=O", "note": "(some centres unmarked) [YML-I-62]", "values": [{"measurement": "MIC", "setting": "P. aeruginosa KW799/wt; Table 5, read-out: MIC", "value": 0.0156, "unit": "µM"}, {"measurement": "MIC", "setting": "Pa4", "value": 0.0156, "unit": "µM"}, {"measurement": "MIC", "setting": "[1]", "value": 0.0078, "unit": "µM"}, {"measurement": "MIC", "setting": "Pa6; beta-lactamase producer strain, read-out: MIC", "value": "> 100", "unit": "µM"}, {"measurement": "MIC", "setting": "Pa6; in the presence of potassium clavulanate, read-out: MIC with added beta-lactamase inhibitor", "value": 0.0625, "unit": "µM"}, {"measurement": "MIC", "setting": "[2]; Table 5", "value": 0.78, "unit": "µM"}, {"measurement": "MIC", "setting": "[2]; clinical isolate from a cystic fibrosis patient", "value": "0.4 to 0.75", "unit": "µM"}, {"measurement": "MIC", "setting": "A. baumannii ATCC 17961; [9]", "value": 0.25, "unit": "µM"}, {"measurement": "MIC", "setting": "A. baumannii ATCC 17961; [10]", "value": 0.25, "unit": "µM"}, {"measurement": "MIC", "setting": "[4]; Table 5", "value": 0.0156, "unit": "µM"}, {"measurement": "zones of inhibition (in words)", "setting": "[7]", "value": "potently active"}]}, {"smiles": "O=C(CN(CCCCNC(=O)c1cccc(O)c1O)C(=O)c1cccc(O)c1O)NC(C(=O)NC1C(=O)N2C(C(=O)[O-])=C(Cl)CCC12)c1ccccc1.[Na+]", "note": "(centres unmarked) [YML-I-115]", "values": [{"measurement": "murine survival (surviving mice)", "setting": "Acinetobacter; D 1, 10^8 Acinetobacter IP", "value": 6}, {"measurement": "murine survival (surviving mice)", "setting": "Acinetobacter; D 2", "value": 6}, {"measurement": "murine survival (surviving mice)", "setting": "Acinetobacter; D 3", "value": 6}, {"measurement": "murine survival (surviving mice)", "setting": "Acinetobacter; D 4", "value": 6}, {"measurement": "murine survival (surviving mice)", "setting": "Acinetobacter; D 5", "value": 6}, {"measurement": "murine survival (surviving mice)", "setting": "Acinetobacter; D 6", "value": 6}, {"measurement": "murine survival (surviving mice)", "setting": "Acinetobacter; D 7", "value": 6}, {"measurement": "survival and behavior (in words)", "setting": "[8]; 1, 20, 50 and 100 mg/kg IV", "value": "All the mice survived and none of the mice experienced abnormal behavior"}, {"measurement": "No-observed-adverse-effect level (NOAEL)", "setting": "[8]; healthy mice, IV injection", "value": 100, "unit": "mg/kg"}]}, {"smiles": "CC1(C)S[C@@H]2[C@H](NC(=O)[C@H](N)c3ccc(O)cc3)C(=O)N2[C@H]1C(=O)O", "note": "[amoxicillin, reference compound]", "values": [{"measurement": "susceptibility of the clinical isolate (in words)", "setting": "[2]", "value": "resistant"}]}, {"smiles": "CC1(C)S[C@@H]2[C@H](NC(=O)[C@H](N)c3ccccc3)C(=O)N2[C@H]1C(=O)O", "note": "[ampicillin, reference compound]", "values": [{"measurement": "MIC", "setting": "P. aeruginosa KW799/wt; Table 5, read-out: MIC", "value": 200, "unit": "µM"}, {"measurement": "MIC", "setting": "P. aeruginosa KW799/wt; iron deficient media, read-out: MIC in Fe(−)MHII Media", "value": 250, "unit": "µM"}, {"measurement": "MIC", "setting": "Pa4", "value": "> 200", "unit": "µM"}, {"measurement": "MIC", "setting": "Pa6; Table 5, read-out: MIC", "value": "> 200", "unit": "µM"}, {"measurement": "MIC", "setting": "[2]; Table 5", "value": "> 200", "unit": "µM"}, {"measurement": "susceptibility of the clinical isolate (in words)", "setting": "[2]", "value": "resistant"}, {"measurement": "MIC", "setting": "A. baumannii ATCC 17961; [9]", "value": "> 200", "unit": "µM"}, {"measurement": "MIC", "setting": "A. baumannii ATCC 17961; [10]", "value": "> 200", "unit": "µM"}, {"measurement": "MIC", "setting": "A. baumannii ATCC 17961; ATCC17961, iron deficient media, read-out: MIC in Fe(−)MHII Media", "value": 250, "unit": "µM"}, {"measurement": "MIC", "setting": "A. baumannii ATCC 17961; ATCC17961, text, read-out: MIC", "value": "> 250", "unit": "µM"}, {"measurement": "MIC", "setting": "[4]; Table 7", "value": "> 200", "unit": "µM"}, {"measurement": "MIC", "setting": "[4]; Table 5", "value": "> 200", "unit": "µM"}, {"measurement": "zones of inhibition (in words)", "setting": "[7]", "value": "inactive"}, {"measurement": "zones of inhibition (in words)", "setting": "[6]; Acinetobacter, FIG. 8, 9, 10", "value": "inactive"}]}, {"smiles": "N[C@@H](C(=O)N[C@@H]1C(=O)N2C(C(=O)O)=C(Cl)CS[C@H]12)c1ccccc1", "note": "[cefaclor, reference compound]", "values": [{"measurement": "MIC", "setting": "P. aeruginosa KW799/wt; Table 7, read-out: MIC", "value": "> 50", "unit": "µM"}, {"measurement": "MIC", "setting": "A. baumannii ATCC 17961; [10]", "value": "> 50", "unit": "µM"}, {"measurement": "MIC", "setting": "[4]; Table 7", "value": "> 50", "unit": "µM"}]}]}
